{"source": "paper PMC3253113", "about": "“Presenilin Is the Molecular Target of Acidic γ-Secretase Modulators in Living Cells” (PLoS ONE, 2012)", "key": {"[1]": {"test_system": "Aβ42 levels", "assay": "Aβ42-lowering activity in PS70 cells, sandwich ELISA of conditioned media", "settings": "CHO, 24 h, read-out: IC50 (Aβ42), Aβ42-lowering activity"}, "[2]": {"test_system": "Aβ38 levels", "assay": "Aβ38 levels in PS70 cells, sandwich ELISA of conditioned media", "settings": "CHO cells with wild type APP and PSEN1, increasing concentrations"}, "[3]": {"biological_target": "Nicastrin (Homo sapiens, UniProt Q92542)", "assay": "Photo-affinity labeling in vitro, N2a-ANPP membrane preparations", "assay_type": "binding", "settings": "N2a-ANPP membranes, 0.25% CHAPSO, 0.5 µM photo-probe, UV"}, "[4]": {"biological_target": "T1, PSEN1-NTF (Homo sapiens, UniProt P49768)", "assay": "Photo-affinity labeling in living N2a-ANPP cells", "assay_type": "cell-based", "settings": "live N2a-ANPP cells, 0.2 µM photo-probe, UV 365 and 302 nm", "method": "(§1) Subsequently, cells were UV-irradiated on ice for 30 min at 365 nm and for 30 min at 302 nm. As negative controls, UV irradiation was omitted or cells were incubated with DMSO vehicle or compound AR80, which was structurally identical to AR243 but lacked the biotin moiety. Cells were washed and harvested in PBS and incubated with hypotonic buffer (10 mM Tris pH 7.4, 1x protease inhibitor mix) for 10 min on ice. To prepare cellular membranes, cells were passed 10 times through a 30G needle and centrifuged at 800×g, 10 min, 4°C. The post-nuclear supernatant was centrifuged at 18.000×g, 45 min, 4°C. […] The total protein concentration of the membrane preparations was determined by BCA assay, concentrations and volumes of each sample were adjusted, and 5x RIPA buffer was added to a final concentration of 1x RIPA buffer (150 mM NaCl, 1.0% NP-40, 0.5% sodium deoxycholate, 0.1% SDS, […], pH 8.0). […] Protein concentrations were again determined and adjusted to equal levels prior to the addition of streptavidin magnetic beads (Invitrogen). […] The eluted material was separated on 12% Bis-Tris gels and analyzed by Western blotting. Chemiluminescence was recorded with a LAS 3000 ECL camera system (Fuji Photo Film GmbH, Duesseldorf, Germany) or on CL-XPosure film (Fisher Scientific GmbH, Schwerte, Germany)."}, "[5]": {"biological_target": "T2, PSEN1-CTF (Homo sapiens, UniProt P49768)", "assay": "Photo-affinity labeling in living N2a-ANPP cells", "assay_type": "cell-based", "settings": "live N2a-ANPP cells, 0.2 µM photo-probe, UV 365 and 302 nm", "method": "as §1"}, "[6]": {"biological_target": "PEN-2 (Homo sapiens, UniProt Q9NZ42)", "assay": "Photo-affinity labeling in vitro, N2a-ANPP membrane preparations", "assay_type": "binding", "settings": "N2a-ANPP membranes, 0.25% CHAPSO, 0.5 µM photo-probe, UV"}, "[7]": {"biological_target": "T2, PSEN1-CTF", "assay": "Photo-affinity labeling in vitro, N2a-ANPP membrane preparations", "assay_type": "binding", "settings": "N2a-ANPP membranes, 0.25% CHAPSO, 0.5 µM photo-probe, UV"}, "[8]": {"biological_target": "T3, endogenous PSEN1-NTF (Homo sapiens, UniProt P49768)", "T3 construct": "host or cells: HEK293T membrane preparations", "assay": "Photo-affinity labeling in vitro, HEK293T membrane preparations", "assay_type": "binding"}, "[9]": {"biological_target": "APH-1 (Homo sapiens, UniProt Q96BI3)", "assay": "Photo-affinity labeling in vitro, N2a-ANPP membrane preparations", "assay_type": "binding", "settings": "N2a-ANPP membranes, 0.25% CHAPSO, 0.5 µM photo-probe, UV"}, "[10]": {"biological_target": "T2, PSEN1-CTF", "assay": "Photo-affinity labeling in vitro, HEK293T membrane preparations", "assay_type": "binding", "set-up": "host or cells: HEK293T membrane preparations", "method": "as §1, with “Germany). […]” for “Germany).”"}, "[11]": {"biological_target": "T1, PSEN1-NTF", "assay": "Competition of photo-probe AR243 binding, HEK293T membrane preparations", "settings": "HEK293T membranes, excess of competitor (100 µM)"}, "[12]": {"test_system": "N2a-ANPP cells", "assay": "Cell viability, alamarBlue reagent", "assay_type": "cell-based", "method": "Cell viability was assessed using the alamarBlue® reagent (Invitrogen). N2a-ANPP cells were seeded at low density in 96-well plates (4000 cells/well) and cultured for 24 h. The cells were then treated in duplicates with increasing concentrations of the respective compounds or DMSO as vehicle for an additional 24 h. 20 µl alamarBlue® was added to cells cultured in 200 µl medium and incubated overnight. Absorbance was measured with a Paradigm™ microplate reader at 570 nm, using 600 nm as the reference wavelength, and percent viability of vehicle control was calculated."}, "[13]": {"biological_target": "T1, PSEN1-NTF", "settings": "N2a-ANPP membranes, cell-free, 0.5 µM AR243 co-incubated with 100 µM competitor"}}, "note": "Entries after “also recorded” stand apart in the source; their conditions may differ. Where two headings read alike, the source gives them in different places."}
{"compound": "CC(C)C#CC(c1ccc(C2(C(F)(F)F)N=N2)cc1)N1CCC(CC(=O)O)CC1c1ccc(C(F)(F)F)cc1", "note": "(centres unmarked) [AR80]", "values": [{"measurement": "IC50", "setting": "[1]", "result": 190, "unit": "nM"}]}
{"compound": "O=C(O)CC1CCN(C(C#CCCCCOC(=O)CCCC[C@@H]2SC[C@@H]3NC(=O)N[C@@H]32)c2ccc(C3(C(F)(F)F)N=N3)cc2)C(c2ccc(C(F)(F)F)cc2)C1", "note": "(stereo partly drawn) [AR243, 2-(1-(7-((5-((3aS,4S,6aR)-2-oxohexahydro-1H-thieno[3,4-d]imidazol-4-yl)pentanoyl)oxy)-1-(4-(3(trifluoromethyl)-3H-diazirin-3-yl)phenyl)hept-2-yn-1-yl)-2-(4(trifluoromethyl)phenyl)piperidin-4-yl)acetic acid]", "values": [{"measurement": "Effect on Aβ38 levels", "setting": "[2]", "result": "concomitant increase in Aβ38 levels"}, {"measurement": "Photo-affinity labeling of Nicastrin (Western blotting)", "setting": "[3]", "result": "did not demonstrate binding"}, {"measurement": "IC50", "setting": "[1]", "result": 290, "unit": "nM"}, {"measurement": "Photo-affinity labeling of PSEN1-NTF in living cells (Western blotting)", "setting": "[4]", "result": "efficient labeling of PSEN1-NTF; also recorded: demonstrated binding of the photo-probe to PSEN1-NTF"}, {"measurement": "Photo-affinity labeling of PSEN1-CTF in living cells (Western blotting)", "setting": "[5]", "result": "did not demonstrate binding"}, {"measurement": "Photo-affinity labeling of PEN-2 (Western blotting)", "setting": "[6]", "result": "did not demonstrate binding"}, {"measurement": "Photo-affinity labeling of PSEN1-CTF (Western blotting)", "setting": "[7]", "result": "did not demonstrate binding"}, {"measurement": "Photo-affinity labeling of endogenous PSEN1-NTF (Western blotting)", "setting": "[8]", "result": "labeling of endogenous PSEN1-NFT"}, {"measurement": "Photo-affinity labeling of APH-1 (Western blotting)", "setting": "[9]", "result": "did not demonstrate binding"}, {"measurement": "Photo-affinity labeling of PSEN1-CTF (Western blotting)", "setting": "[10]", "result": "not PSEN1-CTF"}]}
{"compound": "CC(C)C#CC(c1ccc(Cl)cc1)N1CCC(CC(=O)O)CC1c1ccc(C(F)(F)F)cc1", "note": "(centres unmarked) [BB25]", "values": [{"measurement": "Displacement of AR243 from PSEN1-NTF", "setting": "[11]", "result": "caused displacement of the photo-probe"}, {"measurement": "IC50", "setting": "[1]", "result": 87, "unit": "nM"}, {"measurement": "Concentrations with dose-dependent cytotoxicity", "setting": "[12]", "result": "> 10", "unit": "µM"}, {"measurement": "Competition of AR243 binding to PSEN1-NTF", "setting": "[13]", "result": "efficiently reduced the labeling signal"}]}
{"compound": "COc1cc(-c2cc(C)c(NC(C)c3ccc(F)cc3)nn2)ccc1-n1cnc(C)c1", "note": "(centres unmarked) [Compound 1]", "values": [{"measurement": "IC50", "setting": "[1]", "result": 54, "unit": "nM"}, {"measurement": "Competition of AR243 binding to PSEN1-NTF", "setting": "[13]", "result": "reduced binding of the photo-probe as effectively as the acidic compound JNJ-40418677"}]}
{"compound": "CCOc1cc(C)c(Nc2ccnc(N3CCN(c4ccc(OC)cc4)C(C)(C)C3)n2)cc1C(C)C", "note": "[Compound 2]", "values": [{"measurement": "IC50", "setting": "[1]", "result": 77, "unit": "nM"}, {"measurement": "Competition of AR243 binding to PSEN1-NTF", "setting": "[13]", "result": "only partially competed"}, {"measurement": "Competition of AR243 binding to PSEN1-NTF", "setting": "[13]; listed as compound 2", "result": "more modest reductions"}]}
{"compound": "COc1cc(/C=C2\\CCCN([C@@H](C)c3ccc(F)cc3)C2=O)ccc1-n1cnc(C)c1", "note": "[E-2012]", "values": [{"measurement": "IC50", "setting": "[1]", "result": 53, "unit": "nM"}, {"measurement": "Competition of AR243 binding to PSEN1-NTF", "setting": "[13]", "result": "more modest reductions; also recorded: only partially competed"}]}
{"compound": "CC(C)CC(C(=O)O)c1cc(-c2ccc(C(F)(F)F)cc2)cc(-c2ccc(C(F)(F)F)cc2)c1", "note": "(centres unmarked) [JNJ-40418677]", "values": [{"measurement": "IC50", "setting": "[1]", "result": 290, "unit": "nM"}]}
